Results taken from paper PMC5695821, “Pharmacological inhibition of RORγt suppresses the Th17 pathway and alleviates arthritis in vivo” (PLoS ONE, 2017).

Target: T1, RORγt (Homo sapiens, UniProt P51449)
T1 construct: gene RORC; LBD, amino acids 264–518, His6-tagged
T1 sequence (P51449 264-518): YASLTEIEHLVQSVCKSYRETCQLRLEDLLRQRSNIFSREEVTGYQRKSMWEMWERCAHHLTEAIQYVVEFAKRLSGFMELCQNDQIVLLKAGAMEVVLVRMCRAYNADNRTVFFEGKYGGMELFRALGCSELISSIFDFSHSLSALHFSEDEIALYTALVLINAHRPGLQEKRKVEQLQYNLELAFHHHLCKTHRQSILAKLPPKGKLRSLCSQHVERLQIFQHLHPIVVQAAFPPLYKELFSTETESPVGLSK
Assay: TR-FRET displacement of RIP140 co-activator peptide from purified RORγt-LBD; supported by DSLS thermal shift (ΔTagg […] °C)
Format: binding

`Cc1ncc(C(=O)Nc2cn3ccnc3c(CN3CCN(C(=O)C4CCCC4)[C@@H](C)C3)c2C)cn1` [compound 1, (S)-N-(8-((4-(cyclopentanecarbonyl)-3-methylpiperazin-1-yl)methyl)-7-methylimidazo[1,2-a]pyridin-6-yl)-2-methylpyrimidine-5-carboxamide] gave an IC50 of 19 nM.
